{
  "source": "patent US10141017B2",
  "about": "“Lubricant for magnetic recording medium, and magnetic recording medium” (Dexerials Corporation, priority 2015, dated 2018)",
  "key": {"[1]": {"assay": "Measurement of thermal decomposition temperature (TG-DTA, 5% weight reduction)", "assay_type": "physicochemical", "description": "As measuring conditions, the heating speed was 10° C./min and the air flow rate was 200 mL/min."}, "[2]": {"assay": "Solubility to fluorine-based solvent", "conditions": "25° C.", "quoted_text": "Various fluorine-based solvents were each added in a manner that a concentration was to be 1% by mass, and the resultant was stirred with maintaining the temperature at 25° C. The solubility was evaluated based on the following evaluation criteria.\n• 1: The ionic liquid was dissolved in the fluorine-based solvent, and no precipitation was generated even after leaving the solution to stand. • 2: The ionic liquid was insoluble to the fluorine-based solvent, or was partially dissolved but precipitation was generated when the solution was left to stand. <<Friction Properties>> —Production of Lubricant-Coated Hard Disk—"}, "[3]": {"assay": "Comprehensive evaluation (thermal decomposition temperature, friction properties, solubility)"}, "[4]": {"conditions": "TG-DTA, heating speed 10° C./min, air flow 200 mL/min"}},
  "note": "Like-named read-outs stand apart in the source and are kept apart here.",
  "data": [
    {"molecule": "NCCOCC(F)(F)OC(F)(F)C(F)(F)OC(F)(F)C(F)(F)OC(F)(F)C(F)(F)C(F)(F)C(F)(F)F.O=S(=O)(O)CCCOCC(F)(F)OC(F)(F)C(F)(F)OC(F)(F)C(F)(F)OC(F)(F)C(F)(F)C(F)(F)C(F)(F)F", "note": "[Ex. 1, PFTEG amine-PFTEG sulfonic acid salt]", "values": [
      {"measurement": "Thermal decomposition (5% weight reduction) temperature", "setting": "[1]; [4]", "result": 246, "unit": "°C"},
      {"measurement": "Solubility to fluorine-based solvent", "setting": "[2]; Novec 7100, 1% by mass", "result": 1},
      {"measurement": "Solubility to fluorine-based solvent", "setting": "[2]; Novec 7200, 1% by mass", "result": 1},
      {"measurement": "Solubility to fluorine-based solvent", "setting": "[2]; Novec 7300, 1% by mass", "result": 1},
      {"measurement": "Solubility to fluorine-based solvent", "setting": "[2]; Vertrel XF, 1% by mass", "result": 1}
    ]},
    {"molecule": "NCCC(F)(F)C(F)(F)C(F)(F)C(F)(F)C(F)(F)C(F)(F)C(F)(F)C(F)(F)F.O=S(=O)(O)CCCOCC(F)(F)OC(F)(F)C(F)(F)OC(F)(F)C(F)(F)OC(F)(F)C(F)(F)C(F)(F)C(F)(F)F", "note": "[Ex. 2, 1H,1H,2H,2H-perfluorodecylamine-PFTEG sulfonic acid salt]", "values": [
      {"measurement": "Thermal decomposition (5% weight reduction) temperature", "setting": "[1]", "result": 254, "unit": "°C"}
    ]},
    {"molecule": "NCCOCC(F)(F)OC(F)(F)C(F)(F)OC(F)(F)C(F)(F)OC(F)(F)C(F)(F)C(F)(F)C(F)(F)F.O=S(=O)(O)C(F)(F)C(F)(F)C(F)(F)C(F)(F)F", "note": "[Ex. 3, PFTEG amine-perfluorobutane sulfonic acid salt]", "values": [
      {"measurement": "Thermal decomposition (5% weight reduction) temperature", "setting": "[1]; [4]", "result": 302, "unit": "°C"},
      {"measurement": "Thermal stability and friction coefficient (in words)", "setting": "[3]", "result": "more excellent"},
      {"measurement": "Solubility to fluorine-based solvent", "setting": "[2]; Novec 7100, 1% by mass", "result": 1},
      {"measurement": "Solubility to fluorine-based solvent", "setting": "[2]; Novec 7200, 1% by mass", "result": 1},
      {"measurement": "Solubility to fluorine-based solvent", "setting": "[2]; Novec 7300, 1% by mass", "result": 1},
      {"measurement": "Solubility to fluorine-based solvent", "setting": "[2]; Vertrel XF, 1% by mass", "result": 1}
    ]},
    {"molecule": "NCCC(F)(F)C(F)(F)C(F)(F)C(F)(F)C(F)(F)C(F)(F)C(F)(F)C(F)(F)F.O=C(O)C(F)(F)OC(F)(F)C(F)(F)OC(F)(F)C(F)(F)OC(F)(F)C(F)(F)C(F)(F)C(F)(F)F", "note": "[Ex. 4, 1H,1H,2H,2H-perfluorodecylamine-perfluoro-3,6,9-trioxatridecanoic acid salt]", "values": [
      {"measurement": "Thermal decomposition (5% weight reduction) temperature", "setting": "[1]; [4]", "result": 169, "unit": "°C"},
      {"measurement": "Solubility to fluorine-based solvent", "setting": "[2]; Novec 7100, 1% by mass", "result": 1},
      {"measurement": "Solubility to fluorine-based solvent", "setting": "[2]; Novec 7200, 1% by mass", "result": 1},
      {"measurement": "Solubility to fluorine-based solvent", "setting": "[2]; Novec 7300, 1% by mass", "result": 1},
      {"measurement": "Solubility to fluorine-based solvent", "setting": "[2]; Vertrel XF, 1% by mass", "result": 1}
    ]},
    {"molecule": "NCCOCC(F)(F)OC(F)(F)C(F)(F)OC(F)(F)C(F)(F)OC(F)(F)C(F)(F)C(F)(F)C(F)(F)F.O=S(=O)(NS(=O)(=O)C(F)(F)C(F)(F)C(F)(F)C(F)(F)F)C(F)(F)C(F)(F)C(F)(F)C(F)(F)F", "note": "[Ex. 5, PFTEG amine-bis(perfluorobutanesulfonyl)imide salt]", "values": [
      {"measurement": "Thermal decomposition (5% weight reduction) temperature", "setting": "[1]; [4]", "result": 291, "unit": "°C"},
      {"measurement": "Solubility to fluorine-based solvent", "setting": "[2]; Novec 7100, 1% by mass", "result": 1},
      {"measurement": "Solubility to fluorine-based solvent", "setting": "[2]; Novec 7200, 1% by mass", "result": 1},
      {"measurement": "Solubility to fluorine-based solvent", "setting": "[2]; Novec 7300, 1% by mass", "result": 1},
      {"measurement": "Solubility to fluorine-based solvent", "setting": "[2]; Vertrel XF, 1% by mass", "result": 1}
    ]},
    {"molecule": "NCCC(F)(F)C(F)(F)C(F)(F)C(F)(F)C(F)(F)C(F)(F)C(F)(F)C(F)(F)F.O=S(=O)(O)C(F)(F)C(F)(F)C(F)(F)C(F)(F)F", "note": "[compound 2, 1H,1H,2H,2H-perfluorodecylamine-perfluorobutane sulfonic acid salt, reference compound]", "values": [
      {"measurement": "Thermal decomposition (5% weight reduction) temperature", "setting": "[1]; [4]", "result": 308, "unit": "°C"},
      {"measurement": "Solubility to fluorine-based solvent", "setting": "[2]; Novec 7100, 1% by mass", "result": 2},
      {"measurement": "Solubility to fluorine-based solvent", "setting": "[2]; Novec 7200, 1% by mass", "result": 2},
      {"measurement": "Solubility to fluorine-based solvent", "setting": "[2]; Novec 7300, 1% by mass", "result": 2},
      {"measurement": "Solubility to fluorine-based solvent", "setting": "[2]; Vertrel XF, 1% by mass", "result": 2}
    ]},
    {"molecule": "octadecylamine-perfluoroheptanoic Acid Salt [compound 3, reference compound]", "values": [
      {"measurement": "Thermal decomposition (5% weight reduction) temperature", "setting": "[1]; [4]", "result": 204, "unit": "°C"},
      {"measurement": "Solubility to fluorine-based solvent", "setting": "[2]; Novec 7100, 1% by mass", "result": 2},
      {"measurement": "Solubility to fluorine-based solvent", "setting": "[2]; Novec 7200, 1% by mass", "result": 2},
      {"measurement": "Solubility to fluorine-based solvent", "setting": "[2]; Novec 7300, 1% by mass", "result": 2},
      {"measurement": "Solubility to fluorine-based solvent", "setting": "[2]; Vertrel XF, 1% by mass", "result": 2}
    ]},
    {"molecule": "octylamine-PFTEG sulfonic Acid Salt [Comp. Ex. 1, reference compound]", "values": [
      {"measurement": "Thermal decomposition (5% weight reduction) temperature", "setting": "[1]; [4]", "result": 276, "unit": "°C"}
    ]}
  ]
}
